Experimental data: paper PMC6858373 (Scientific Reports, 2019)
Structures can show the parent of a compound that is named as a salt.

Key:
in vitro = settings: human
Clone V cells [1] = settings: human, 16 h, 30 µM
[2] = biological target: full-length P. pyralis luciferase (Photinus pyralis, UniProt P08659, K549A/L550V/N119G/N50D/S548I); assay type: cell-based; settings: CC_NCI screening, normalized to on-plate 0.3% DMSO controls; for Luciferase Assay % Lum: full-length luciferase counter-screen luminescence; for Luciferase Assay Z-score: full-length luciferase counter-screen
Clone V cells [3] = experiment: CellTiter Blue (CTB) cell viability counter-screen; settings: CC_NCI screening; CTB cell viability fluorescence; normalized to on-plate 0.3% DMSO controls
[4] = biological target: T1, FGF14:Nav1.6 C-tail complex (Homo sapiens, UniProt Q92915+Q9UQD0); experiment: Split-luciferase complementation assay (LCA) in Clone V double stable HEK293 cells; assay type: cell-based; settings: CC_NCI screening; for Split Luciferase Assay % Lum Set 1 / Split Luciferase Assay %Lum Set 2: LCA luminescence, normalized to on-plate 0.3% DMSO controls (n=16 per plate); for Split Luciferase Assay % Lum Set 1 / Split Luciferase Assay Z-score Set 1: biological replicate Set 1; for Split Luciferase Assay %Lum Set 2 / Split Luciferase Assay Z-score Set 2: biological replicate Set 2; for Split Luciferase Assay Z-score Set 1 / Split Luciferase Assay Z-score Set 2: LCA, normalized to on-plate 0.3% DMSO controls; for Split Luciferase Assay %Lum Avg: average of Set 1 and Set 2, normalized to 0.3% DMSO controls
T1 construct: polymerase chain reaction (PCR) amplification of the FGF14 open reading frame (nt 1–855); C-terminal fragment of Nav1.6 (amino acids 1763–1976) fused with CD4ΔC-tail (amino acids 1–395); expressed in transfected cells
T1 sequence (Q92915 1-252 isoform Q92915-2): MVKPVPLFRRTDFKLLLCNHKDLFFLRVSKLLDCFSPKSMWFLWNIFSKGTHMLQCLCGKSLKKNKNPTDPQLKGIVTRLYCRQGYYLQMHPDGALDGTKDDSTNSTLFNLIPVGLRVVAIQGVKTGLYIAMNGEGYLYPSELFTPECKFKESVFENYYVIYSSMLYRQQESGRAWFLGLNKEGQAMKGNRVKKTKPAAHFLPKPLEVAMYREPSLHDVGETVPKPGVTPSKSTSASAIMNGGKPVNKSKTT
T1 sequence (Q9UQD0 1763-1976 limits assumed): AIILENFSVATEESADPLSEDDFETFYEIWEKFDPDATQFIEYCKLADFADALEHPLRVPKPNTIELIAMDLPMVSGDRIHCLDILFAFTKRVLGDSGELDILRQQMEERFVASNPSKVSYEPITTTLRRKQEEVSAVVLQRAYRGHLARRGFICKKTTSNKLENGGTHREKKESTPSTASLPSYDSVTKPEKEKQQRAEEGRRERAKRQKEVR

full-length P. pyralis luciferase, sequence (P08659 whole entry N50D/N119G/S548I/K549A/L550V, looked up): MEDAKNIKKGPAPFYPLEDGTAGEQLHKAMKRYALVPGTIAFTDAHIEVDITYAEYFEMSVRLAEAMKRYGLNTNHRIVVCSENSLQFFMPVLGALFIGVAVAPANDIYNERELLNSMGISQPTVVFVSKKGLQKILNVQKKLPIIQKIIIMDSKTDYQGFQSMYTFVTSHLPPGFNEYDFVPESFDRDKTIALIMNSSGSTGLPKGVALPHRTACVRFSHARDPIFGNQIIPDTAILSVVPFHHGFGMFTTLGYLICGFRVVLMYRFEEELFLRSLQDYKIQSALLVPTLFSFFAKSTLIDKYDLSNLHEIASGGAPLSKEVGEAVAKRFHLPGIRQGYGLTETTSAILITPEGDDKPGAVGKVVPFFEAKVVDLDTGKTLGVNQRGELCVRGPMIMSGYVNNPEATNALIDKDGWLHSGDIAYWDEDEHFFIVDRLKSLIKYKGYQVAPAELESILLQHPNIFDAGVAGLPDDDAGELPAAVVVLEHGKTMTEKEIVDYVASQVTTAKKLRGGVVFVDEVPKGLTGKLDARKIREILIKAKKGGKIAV

Structure (SMILES)	viability at 16 h, 30 µM (in vitro)	Toxicity Assay Z-score (CTB cell viability) (Clone V cells [1])	Luciferase Assay % Lum (full-length luciferase counter-screen) [2]	Luciferase Assay Z-score (full-length luciferase counter-screen) [2]	Toxicity Assay % Fluor (Clone V cells [3])	Toxicity Assay Z-score (Clone V cells [1])	Split Luciferase Assay % Lum Set 1 [4]	Split Luciferase Assay %Lum Set 2 [4]	Split Luciferase Assay Z-score Set 1 [4]	Split Luciferase Assay Z-score Set 2 [4]	Split Luciferase Assay %Lum Avg [4]	Luciferase Assay % Lum [2]	Luciferase Assay Z-score [2]
COc1c2occc2cc2ccc(=O)oc12 [Methoxsalen]	109%	1.23	93.90%	-0.78	–	–	–	–	–	–	–	–	–
CC1(C)CCC(c2ccc(Cl)cc2)=C(CN2CCN(c3ccc(C(=O)NS(=O)(=O)c4ccc(N[C@H](CCN5CCOCC5)CSc5ccccc5)c(S(=O)(=O)C(F)(F)F)c4)cc3)CC2)C1 [ABT-263]	–	–	–	–	92.92%	-0.99	93.82%	71.78%	-0.50	-2.30	82.80%	103.24%	0.42
CS(=O)(=O)CCNCc1ccc(-c2ccc3ncnc(Nc4ccc(OCc5cccc(F)c5)c(Cl)c4)c3c2)o1 [LAPATINIB]	–	–	–	–	85.57%	-2.02	–	95.71%	–	-0.35	107.26%	87.41%	-1.61
N#Cc1ccc(C(c2ccc(C#N)cc2)n2cncn2)cc1 [Letrozole]	–	–	–	–	93.68%	-0.88	99.25%	115.47%	-0.06	1.26	107.36%	99.90%	-0.01
O=C1CCC(N2C(=O)c3ccccc3C2=O)C(=O)N1 (centres unmarked) [Thalidomide]	–	–	–	–	87.53%	-1.74	128.60%	108.19%	2.31	0.67	118.40%	100.85%	0.11
Oc1ncnc2[nH]ncc12 [Allopurinol]	–	–	–	–	88.22%	-1.65	106.86%	95.71%	0.55	-0.35	101.29%	96.95%	-0.39
COC(=O)C[C@](O)(CCCC(C)(C)O)C(=O)O[C@@H]1C(OC)=C[C@]23CCCN2CCc2cc4c(cc2[C@H]13)OCO4 [Omacetaxine mepesuccinate]	–	–	–	–	93.81%	-0.87	20.98%	19.77%	-6.39	-6.53	20.37%	87.82%	-1.56
CC[C@]1(O)C[C@H]2CN(CCc3c([nH]c4ccccc34)[C@@](C(=O)OC)(c3cc4c(cc3OC)N(C=O)[C@H]3[C@@](O)(C(=O)OC)[C@H](OC(C)=O)[C@]5(CC)C=CCN6CC[C@]43[C@@H]65)C2)C1 [Vincristine sulfate]	–	–	–	–	98.56%	-0.20	200.35%	196.62%	8.11	7.86	198.49%	109.71%	1.24
C[C@]12CC[C@H](O)CC1=CC[C@@H]1[C@@H]2CC[C@]2(C)C(c3cccnc3)=CC[C@@H]12 [Abiraterone]	–	–	–	–	84.37%	-2.19	115.56%	148.76%	1.26	3.97	132.16%	85.19%	-1.90
